In patent publication US4431807A, “4-Methyl-5-(unsubstituted and substituted phenoxy)-6-methoxy-8-(aminoalkylamino)quinolines” (priority 1981, dated 1984):
Where two headings read alike, the source gives them in different places.

Tests used:
[1] = tested on: P. cynomolgi; assay: Combination drug therapy including chloroquine as suppressive adjuvant, radical curative studies; format: in vivo, P. cynomolgi in rhesus monkeys; details: for Activity at 3.5 mg/kg (×1): primaquine with chloroquine, compound 1 without chloroquine; for Fully curative dose level: single dose, with chloroquine
[2] = in vivo; details: rat, po, Acute Oral LD50, rats
[3] = Acute oral toxicity, mice
[4] = in vivo; details: guinea pig, po
[5] = in vivo; details: mouse, po
[6] = tested on: Plasmodium berghei; details: cited from earlier work
[7] = tested on: Plasmodium vivax, P. malariae and P. ovale malaria; details: cited from earlier work
[8] = Blood schizonticidal (suppressive) test, Rane mouse test, P. berghei; format: in vivo, Plasmodium berghei KBG 173 in ICR/HA Swiss mice; details: mouse, in vivo, sc
From the text: Blood Schizonticidal Test (Mouse), University of Miami, Rane (Suppressive)
This system is based on comparisons of responses to test compounds by Plasmodium berghei KBG 173 malaria in mice as expressed in mean survival times and the mean survival times of untreated controls. Thus, compounds noted as active produce increases in the survival times of the treated animals that are significant when compared with the survival times of untreated controls. Since an established disease is less sensitive to treatment than a disease in the early stages of development, treatment is withheld until the parasitemia is relatively high in order to insure a more reliable assay of activity and the selection of appropriate compounds for intensive preclinical studies.
Utilizing young ICR/HA Swiss mice and a standard inoculum of Plasmodium berghei KBG 173, it is possible to produce a uniform disease fatal to 100% of untreated animals within 6 to 8 days with a mean survival time of 6.2 days. Test animals weigh from 18 to 22 grams but weight variations in any given experimental or control group are confined to 2-3 grams. All animals in any given test are approximately of the same age. Animals on test are housed in metal-topped plastic cages, given a standard laboratory diet and water ad libitum.
Test animals receive an intraperitoneal injection of 0.5 ml of 1:100 dilution of heparinized heart's blood with a minimum of 90% parasitized cells (4×10^7 cells), drawn from donor mice infected one week earlier with Plasmodium berghei. The donor stran is maintained by weekly passages in separate groups of mice inoculated with a 0.5 ml of 1:500 dilution of heparinized heart's blood.
Test compounds are administered after dissolution or suspension in peanut oil. A single dose is given subcutaneously 72 hours after the mice are infected with Plasmodium berghei. At this time a 10-15 percent parasitemia has developed; the disease is well established but has not produced sufficient debility to alter the response of the host to toxic effects of the drug on test. Since treatment is withheld for three days to permit the infection to become well established and death occurs in untreated controls within 6-8 days, it is believed that this system presents a candidate compound with the maximum challenge. In order to check factors such as changes in the infectivity of Plasmodium berghei or in the susceptibility of the host or to detect technical errors, a group of infected animals treated with pyrimethamine at dose levels producing definite increases in survival time is included as a positive control in every experiment.
In each experiment test compounds are administered in graded doses. […] However, if an active drug is toxic for the host, its toxicity may become a limiting factor; continued increases in dose levels also increase the toxic effects and may result in the diminution of survival times. Deaths prior to the sixth day, when untreated controls begin to die, are regarded as non-parasitic and become the basis for toxicity evaluations. Treated animals are kept under observation for 60 days. Survivors at the end of this period of time are considered as cured.
An increase of 100% in mean survival time is considered the minimum effective response for a candidate compound. In calculating mean survival time, toxic deaths and 60 day survivors are not included.
The antimalarial activity data acquired by the two test procedures described above are listed in Tables 2 and 3 for the compounds of this invention. In Table 4, the most promising compound of the series, compound 1, is compared directly with primaquine together with some additional test data for compound 1 compared to primaquine. In all the work reported herein primaquine is used in the form of the diphosphate salt. The test data are expressed in the form of the number of cures at a given dose level. […]

[9] = tested on: Plasmodium cynomolgi; details: cited from earlier work
[10] = 0.875 mg/kg base × 1, oral, without chloroquine
[11] = 1.75 mg/kg base × 1, oral, plus chloroquine
[12] = 3.5 mg/kg base × 1, oral, without chloroquine
[13] = 14 mg/kg base × 1, oral, without chloroquine
[14] = 3.5 mg/kg base × 1, oral, plus chloroquine
[15] = 7 mg/kg base × 1, oral, plus chloroquine

COc1cc(NC(C)CCCN)c2nccc(C)c2c1Oc1cccc(C(F)(F)F)c1.O=C(O)CCC(=O)O (stereo not shown) [Compound 1, 8-(4-Amino-1-methylbutylamino)-6-methoxy-4-methyl-5-(3-trifluoromethylphenoxy)quinoline Succinate]
Relapse ([1]; 0.4375 mg/kg base × 1, oral, plus chloroquine): 4R | Relapse ([1]; 0.4375 mg/kg base × 1, oral, without chloroquine): 4R | Cure ([1]; 0.875 mg/kg base × 1, oral, plus chloroquine): 4C | Relapse [1, 10]: 1R | Suppressive failure [1, 10]: 3SF | Cure [1, 11]: 2C | Suppressive failure ([1]; 1.75 mg/kg base × 1, oral, without chloroquine): 4SF | Cure [1, 12]: 1C | Suppressive failure [1, 12]: 1SF | Cure ([1]; 7 mg/kg base × 1, oral, without chloroquine): 2C | Cure [1, 13]: 1C | Suppressive failure [1, 13]: 1SF | Activity at 3.5 mg/kg (×1) [1]: equally active | Fully curative dose level [1]: 0.875 mg/kg | Molar Primaquine Index ([1]; with chloroquine co-administration): 19 | LD50 ([2]; female): 577 mg/kg | LD50 ([2]; male): 259 mg/kg | LD50 ratio Compound 1/Primaquine ([3]; mice, male): 1.59 | LD50 [4]: 174 mg/kg | LD50 [5]: 236 mg/kg

COc1cc(NC(C)CCCN)c2ncccc2c1 (stereo not shown) [Primaquine Diphosphate, 8-((4-amino-1-methylbutyl)amino)-6-methoxy-quinoline, reference compound]
Relapse [1, 11]: 2R | Cure [1, 14]: 2C | Relapse [1, 14]: 1R | Suppressive failure [1, 14]: 1SF | Cure [1, 15]: 2C | Relapse [1, 15]: 1R | Suppressive failure [1, 15]: 1SF | Cure ([1]; 14 mg/kg base × 1, oral, plus chloroquine): 2C | Activity at 3.5 mg/kg (×1) [1]: effective although a relapse was observed in one of the four animals | Fully curative dose level [1]: 14 mg/kg | Δ MST ([6]; 160 mg/kg, 5 mice, Table I): 9 days | Toxic deaths ([6]; 640 mg/kg, 5 mice, Table I): 5T | Suppressive activity ([6]; non-toxic dose levels, prior art comparison): very weak activity | Radical curative (tissue) activity ([7]; clinical use): effective in clearing the tissues of parasites | Suppressive activity (blood schizonticide) ([7]; clinical use): relatively ineffective as a blood schizonticide | Toxicity in man ([7]; single curative dose): precludes administration of a single curative dose | LD50 ([3]; mouse, in vivo, po): 148 mg/kg | mortality ([8]; 320 mg/kg × 1, s.c., five mice, Table III, read-out: Toxic (converted)): 40% | mortality ([8]; 640 mg/kg salt, s.c., Table IV A-1, read-out: Toxic deaths (converted)): 100% | Radical curative activity ([9]; 0.316 mg/kg, prior art comparison): inactive | Radical curative activity, cures ([9]; 1.0 mg/kg (× 7), Table I): 1/2 | % cures (radical curative) ([9]; 1.0 mg/kg): 50% | % cures (radical curative) ([9]; 1.3 mg/kg): 100%
